Read-outs that look alike come from different tables or passages of the source.
How the values were obtained:
A2780 cells = experiment: CCK-8 assay of cDDP cytotoxicity in parental A2780 cells; type: cell-based; conditions: parental A2780 cell line, 1 h cDDP exposure
Description: (§1) FIG. 1B: CCK-8 assay of A2780, A2780-CP and A2780-CP cells pre-incubated for 24 h with APP antisense oligonucleotides (A2780ONS) during a 1 h exposure to increasing concentrations of cDDP.

A2780-CP cells = experiment: CCK-8 assay of cDDP cytotoxicity in Pt resistant A2780-CP cells; type: cell-based; conditions: 1 h cDDP exposure
Description: as §1

APP = APP (Homo sapiens, UniProt P05067); conditions: in vivo and in vitro; cited from earlier work
Sequence of APP (P05067 18-770): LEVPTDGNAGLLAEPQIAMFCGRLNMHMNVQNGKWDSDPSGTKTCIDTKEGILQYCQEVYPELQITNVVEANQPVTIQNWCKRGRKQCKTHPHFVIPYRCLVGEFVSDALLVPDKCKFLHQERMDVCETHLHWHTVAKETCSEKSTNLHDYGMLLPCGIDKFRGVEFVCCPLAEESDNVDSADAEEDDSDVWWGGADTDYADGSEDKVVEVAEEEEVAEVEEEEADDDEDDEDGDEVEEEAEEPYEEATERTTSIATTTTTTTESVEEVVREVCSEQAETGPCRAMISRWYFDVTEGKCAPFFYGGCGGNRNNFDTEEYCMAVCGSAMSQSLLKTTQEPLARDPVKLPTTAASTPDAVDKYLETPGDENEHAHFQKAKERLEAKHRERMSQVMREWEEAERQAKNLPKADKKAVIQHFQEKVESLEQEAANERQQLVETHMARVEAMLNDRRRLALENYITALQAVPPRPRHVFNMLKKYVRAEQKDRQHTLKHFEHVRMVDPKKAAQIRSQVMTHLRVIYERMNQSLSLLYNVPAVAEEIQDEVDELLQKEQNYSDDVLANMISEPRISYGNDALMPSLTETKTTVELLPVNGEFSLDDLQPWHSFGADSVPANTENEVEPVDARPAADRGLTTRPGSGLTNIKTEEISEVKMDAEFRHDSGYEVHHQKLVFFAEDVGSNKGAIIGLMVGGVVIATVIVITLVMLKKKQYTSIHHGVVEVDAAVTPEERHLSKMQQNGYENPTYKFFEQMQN

| Compound | IC50 (A2780 cells) | IC50 (A2780-CP cells; A2780-CP cells pre-treated overnight with 25 μM APP ONS, read-out: IC50 of cDDP following APP downregulation) | IC50 (A2780-CP cells; A2780-CP cells, no APP downregulation, read-out: IC50 of cDDP) | Binding to APP (APP) |
| --- | --- | --- | --- | --- |
| [NH2][Pt]([NH2])([Cl])[Cl] [cDDP, Cisplatin] | 10.2 ± 0.32 µM | 12.1 ± 0.3 µM | 63.2 ± 1.9 µM | – |
| -cdkc pagtyvsehc tntslrvcss cpvgtftr- (SEQ ID NO:1) [DR6 peptide] | – | – | – | high affinity |

Source: patent publication US20220409733A1, “COMPOSITIONS AND METHODS FOR TREATING CANCER” (priority 2019, published 2022)
